Measurements: the supplement of paper PMC10307832

What was measured:
Experiment in all cases: relative viability (nuclei count vs DMSO), 5 days (fraction); higher = more cells survive
[1] = test system: 201T
Procedure, shortened: (§1)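 Medians of duplicate plates are given as relative viability. That measure is the nuclei count in treated wells divided by the count in vehicle wells. Counts were taken on 4× images of lung cancer cell lines in 1536-well plates, 5 days after pin-tool dosing the day after seeding with one drug alone or a fixed anchor-drug dose plus five library-drug doses (not always all listed) in √10 steps.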

[2] = test system: COR-L 105
Procedure, shortened: as §1

[3] = test system: ChaGo-K-1
Procedure, shortened: as §1

[4] = test system: EPLC-272H
Procedure, shortened: as §1

[5] = test system: H3255
Procedure, shortened: as §1

[6] = test system: HCC-78
Procedure, shortened: as §1

[7] = test system: HCC-827
Procedure, shortened: as §1

[8] = test system: LC-2-ad
Procedure, shortened: as §1

[9] = test system: LCLC-97TM1
Procedure, shortened: as §1

[10] = test system: NCI-H1666
Procedure, shortened: as §1

[11] = test system: NCI-H1915
Procedure, shortened: as §1

[12] = test system: NCI-H2087
Procedure, shortened: as §1

[13] = test system: NCI-H2126
Procedure, shortened: as §1

[14] = test system: NCI-H2347
Procedure, shortened: as §1

[15] = test system: NCI-H23
Procedure, shortened: as §1

[16] = test system: NCI-H2405
Procedure, shortened: as §1

[17] = test system: NCI-H520
Procedure, shortened: as §1

[18] = test system: NCI-H647
Procedure, shortened: as §1

[19] = test system: NCI-H650
Procedure, shortened: as §1

[20] = test system: NCI-H661
Procedure, shortened: as §1

[21] = test system: PC-14
Procedure, shortened: as §1

[22] = test system: RERF-LC-KJ
Procedure, shortened: as §1

For `COc1nc(C)cnc1NS(=O)(=O)c1cccnc1-c1ccc(-c2nnco2)cc1` [Zibotentan] + O=C(c1cc(Cc2n[nH]c(=O)c3ccccc23)ccc1F)N1CCN(C(=O)C2CC2)CC1 [Olaparib] (partner 8 µM), the relative viability ([1]; first compound 0.08 µM) was 0.819, the relative viability ([1]; first compound 0.253 µM) was 0.828 and the relative viability ([1]; first compound 0.8 µM) was 0.846. For the same compound, the relative viability ([1]; first compound 2.53 µM) was 0.876, the relative viability ([2]; first compound 0.08 µM) was 0.68 and the relative viability ([2]; first compound 0.253 µM) was 0.605. For the same compound, the relative viability ([2]; first compound 0.8 µM) was 0.721, the relative viability ([2]; first compound 2.53 µM) was 0.784 and the relative viability ([3]; first compound 0.08 µM) was 0.393. For the same compound, the relative viability ([3]; first compound 0.253 µM) was 0.396, the relative viability ([3]; first compound 0.8 µM) was 0.322 and the relative viability ([3]; first compound 2.53 µM) was 0.393. The relative viability ([4]; first compound 0.253 µM) was 0.732, the relative viability ([4]; first compound 0.8 µM) was 0.991 and the relative viability ([4]; first compound 2.53 µM) was 0.754. It also gave a relative viability ([5]; first compound 0.08 µM) of 0.552, a relative viability ([5]; first compound 0.253 µM) of 0.529 and a relative viability ([5]; first compound 0.8 µM) of 0.588. The relative viability ([5]; first compound 2.53 µM) was 0.56, the relative viability ([6]; first compound 0.08 µM) was 0.949 and the relative viability ([6]; first compound 0.253 µM) was 0.748. The relative viability ([6]; first compound 0.8 µM) was 0.719, the relative viability ([6]; first compound 2.53 µM) was 0.736 and the relative viability ([7]; first compound 0.08 µM) was 0.64. It also gave a relative viability ([7]; first compound 0.253 µM) of 0.647, a relative viability ([7]; first compound 0.8 µM) of 0.667 and a relative viability ([7]; first compound 2.53 µM) of 0.669. For the same compound, the relative viability ([8]; first compound 0.08 µM) was 0.68, the relative viability ([8]; first compound 0.253 µM) was 0.682 and the relative viability ([8]; first compound 0.8 µM) was 0.721. The relative viability ([8]; first compound 2.53 µM) was 0.71, the relative viability ([9]; first compound 0.08 µM) was 0.383 and the relative viability ([9]; first compound 0.253 µM) was 0.393. For the same compound, the relative viability ([9]; first compound 0.8 µM) was 0.433, the relative viability ([9]; first compound 2.53 µM) was 0.385 and the relative viability ([10]; first compound 0.08 µM) was 0.753. It also gave a relative viability ([10]; first compound 0.253 µM) of 0.726, a relative viability ([10]; first compound 0.8 µM) of 0.765 and a relative viability ([10]; first compound 2.53 µM) of 0.728. For the same compound, the relative viability ([11]; first compound 0.08 µM) was 0.31, the relative viability ([11]; first compound 0.253 µM) was 0.277 and the relative viability ([11]; first compound 0.8 µM) was 0.254. The relative viability ([11]; first compound 2.53 µM) was 0.24, the relative viability ([12]; first compound 0.08 µM) was 0.658 and the relative viability ([12]; first compound 0.253 µM) was 0.668. It also gave a relative viability ([12]; first compound 0.8 µM) of 0.63, a relative viability ([12]; first compound 2.53 µM) of 0.48 and a relative viability ([13]; first compound 0.08 µM) of 0.945. It also gave a relative viability ([13]; first compound 0.253 µM) of 0.942, a relative viability ([13]; first compound 0.8 µM) of 0.89 and a relative viability ([13]; first compound 2.53 µM) of 0.951. For the same compound, the relative viability ([14]; first compound 0.08 µM) was 0.47, the relative viability ([14]; first compound 0.253 µM) was 0.596 and the relative viability ([14]; first compound 0.8 µM) was 0.635. For the same compound, the relative viability ([14]; first compound 2.53 µM) was 0.615, the relative viability ([15]; first compound 0.08 µM) was 0.266 and the relative viability ([15]; first compound 0.253 µM) was 0.235. For the same compound, the relative viability ([15]; first compound 0.8 µM) was 0.242, the relative viability ([15]; first compound 2.53 µM) was 0.251 and the relative viability ([16]; first compound 0.08 µM) was 0.878. It also gave a relative viability ([16]; first compound 0.253 µM) of 0.843, a relative viability ([16]; first compound 0.8 µM) of 0.915 and a relative viability ([16]; first compound 2.53 µM) of 0.892. It also gave a relative viability ([17]; first compound 0.08 µM) of 0.282, a relative viability ([17]; first compound 0.253 µM) of 0.296 and a relative viability ([17]; first compound 0.8 µM) of 0.252. The relative viability ([17]; first compound 2.53 µM) was 0.352, the relative viability ([18]; first compound 0.08 µM) was 0.592 and the relative viability ([18]; first compound 0.253 µM) was 0.421. It also gave a relative viability ([18]; first compound 0.8 µM) of 0.665, a relative viability ([18]; first compound 2.53 µM) of 0.494 and a relative viability ([19]; first compound 0.08 µM) of 0.413. For the same compound, the relative viability ([19]; first compound 0.253 µM) was 0.395, the relative viability ([19]; first compound 0.8 µM) was 0.52 and the relative viability ([19]; first compound 2.53 µM) was 0.443. The relative viability ([20]; first compound 0.08 µM) was 0.776, the relative viability ([20]; first compound 0.253 µM) was 0.677 and the relative viability ([20]; first compound 0.8 µM) was 0.791. The relative viability ([20]; first compound 2.53 µM) was 0.751, the relative viability ([21]; first compound 0.08 µM) was 0.206 and the relative viability ([21]; first compound 0.253 µM) was 0.271. The relative viability ([21]; first compound 0.8 µM) was 0.276, the relative viability ([21]; first compound 2.53 µM) was 0.315 and the relative viability ([22]; first compound 0.08 µM) was 0.832. It also gave a relative viability ([22]; first compound 0.253 µM) of 0.802, a relative viability ([22]; first compound 0.8 µM) of 0.921 and a relative viability ([22]; first compound 2.53 µM) of 0.894.
